Experimental data from patent publication US4661495A, “Arphamenine-related compounds useful for potentiating the immune response in a living animal” (Zaidan Hojin Biseibutsu Kagaku Kenkyu Kai, priority 1984, dated 1987).

Key:
[1] = tested on: immune response; conditions: earlier publications/filings; cited from earlier work
[2] = tested on: carboxypeptidase; conditions: J. Antibiot., 37, 682 (1984); cited from earlier work
[3] = tested on: tumor; conditions: earlier filings; cited from earlier work
[4] = molecular target: T1, carboxypeptidase A (Bos taurus, UniProt P00730); assay: inhibitory activity of the compounds to carboxypeptidase A; assay type: biochemical, bovine; conditions: hippuryl-L-phenylalanine substrate, pH 7.5, 37° C., 30 minutes; read-out: IC50 (50% Inhibition Concentration) (converted)
T1 construct: purchased Sigma Co. Type 1; host or cells: bovine pancreas
T1 sequence (P00730 111-417 limits assumed): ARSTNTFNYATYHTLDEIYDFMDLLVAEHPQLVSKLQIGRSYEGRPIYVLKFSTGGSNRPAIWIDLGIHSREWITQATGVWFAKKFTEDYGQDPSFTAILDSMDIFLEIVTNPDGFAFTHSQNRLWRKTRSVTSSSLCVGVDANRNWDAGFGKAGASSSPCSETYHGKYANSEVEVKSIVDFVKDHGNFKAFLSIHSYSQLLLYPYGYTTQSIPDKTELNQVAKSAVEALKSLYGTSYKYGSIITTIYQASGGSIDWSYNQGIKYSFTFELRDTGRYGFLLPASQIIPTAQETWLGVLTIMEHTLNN
Protocol: (1) Method of testing the inhibitory activity of the compounds to carboxypeptidase A: The carboxypeptidase A-inhibitory activity was determined according to a modification of the method of Hayakari et al. (M. Hayakari et al., "Analytical Biochemistry" 84, 361-369, 1978). Thus, a mixture of 0.05 ml of a solution of 10 mM hippuryl-L-phenylalanine (as substrate), 0.25 ml of 0.05 M Tris-hydrochloride buffer (pH 7.5) containing 0.9 M NaCl and 0.15 ml of a solution containing a test compound as produced in Example 1, 2, 3 or 4 shown hereinafter was heated at 37° C. for 3 minutes. To said mixture was then added 0.05 ml of a carboxypeptidase A (Type 1, as extracted from bovine pancreas, a product of Sigma Co.), and the enzymatic reaction was effected at 37° C. for 30 minutes. The reaction solution was admixed with 0.03 ml of aqueous 1N sodium hydroxide to stop the reaction. After allowing to stand at ambient temperature for 15 minutes, the reaction solution was admixed with 2 ml of 0.06 M phosphate buffer (pH 7.2) and with 2 ml of a solution of 1% cyanuric chloride in ethylene glycol monomethylester. After the reaction solution was allowed to stand at ambient temperature for 5 minutes, absorbance (a) at 382 nm of the reaction solution was measured. For the blank test, the above procedure was repeated using said buffer solutions without the test compound, and the absorbance (b) was measured in the blank test. The percentage for inhibition to carboxypeptidase A was calculated according to the equation: [formula] On the basis of the values of percentages of inhibition measured by the above procedure, 50% Inhibition Concentration (IC50) was evaluated.

[5] = tested on: ICR-strain mice; assay: Toxicity after intraperitoneal administration; assay type: in vivo; conditions: 100 mg/Kg intraperitoneally, ICR-strain mice (male, 5 weeks-aged)
[6] = tested on: D.T.H. response with sheep red blood cells; assay: effect on cell-mediated or cellular immunity: Delayed Type Hypersensitivity (D.T.H.) with sheep red blood cells; assay type: in vivo, CDF1-mouse; conditions: oral, 24 hours after challenge, * P < 0.05
Protocol: (2) The effect on cell-mediated or cellular immunity:
The effect of the new arphamenine-related compounds on cell-mediated or cellular immunity was evaluated by measuring Delayed Type Hypersensitivity (D.T.H.) using mice which received sheep red blood cell inoculated as antigen into the footpad of mice for immunization (see P. H. Lagrange, G. B. Mackaness and T. E. Miller: "J. Exp. Med.", 139, 1529-1539 (1974)).
A suspension of 10^8 sheep red blood cells (SRBC) in 0.05 ml of physiological saline was subcutaneously injected into one footpad of each CDF1 -mouse (female, 8 weeks-aged, 5 mice in each group) for immunization. Simultaneously, the mouse under test was given orally the test compound at a dosage of 5 mg/Kg, 0.5 mg/Kg or 0.05 mg/Kg as a solution of the test compound which was prepared by dissolving the test compound in physiological saline and then filtering the resulting solution by a millipore filter. On 4 days after the administration of the test compound, 10^8 sheep red blood cells were subcutaneously injected into another footpad of each test mouse for secondary challenge of the D.T.H. response. 24 Hours after the challenge, the thickness of the footpads was measured with calipers. Concurrently, the thickness of footpad of control mice which had received the injection of SRBC and physiological saline without the administration of the test compound was also measured in each mouse.
The effect of the test compound on the DTH response was evaluated by a percentage of increase in footpad thickness as calculated according to the following equation: [formula]

Row | Compound | immunopotentiating activity [1] | carboxypeptidase-inhibitory activity [2] | antitumor activity [3] | IC50 [4] [nM] | death [5] | Percentage of increase in footpad thickness ([6]; 0.05 mg/Kg) [Percentage] | Percentage of increase in footpad thickness ([6]; 0.5 mg/Kg) [Percentage] | Percentage of increase in footpad thickness ([6]; 5 mg/Kg) [Percentage]
1 | benzylmalic acid | shows an immunopotentiating activity | having a carboxypeptidase-inhibitory activity |  |  |  |  |  | 
2 | N=C(N)NCCCC(N)C(=O)CC(Cc1ccc(O)cc1)C(=O)O (centres unmarked) [arphamenine B] | immunopotentiating activity |  | antitumor activity |  |  |  |  | 
3 | Cc1cc(C)nc(NCCCC(NC(=O)c2ccccc2)C(=O)CC(Cc2ccc(O)cc2)C(=O)O)n1 (centres unmarked) [Example 2 (b), 5-benzoylamino-8-[(4,6-dimethylpyrimidin-2-yl)amino]-2-(4'-hydroxyphenylmethyl)-4-oxo-octanoic acid] |  |  |  | 17.4 | no death | 113 | 130 | 144
4 | N=C(N)NCCCC(N)C(=O)CC(Cc1ccccc1)C(=O)O (centres unmarked) [arphamenine A] | immunopotentiating activity |  | antitumor activity |  |  |  |  | 
5 | Cc1cc(C)nc(NCCCC(NC(=O)OCc2ccccc2)C(=O)CC(Cc2ccccc2)C(=O)O)n1 (centres unmarked) [Example 3 (b), 5-benzyloxycarbonylamino-8-[(4,6-dimethylpyrimidin-2-yl)amino]-4-oxo-2-phenylmethyloctanoic acid] |  |  |  | 123 | no death | 110 | 120 | 136
6 | Cc1cc(C)nc(NCCCC(NC(=O)c2ccccc2)C(=O)CC(Cc2ccccc2)C(=O)O)n1 (centres unmarked) [Example 1 (b), 5-benzoylamino-8-[(4,6-dimethylpyrimidin-2-yl)amino]-4-oxo-2-phenylmethyloctanoic acid] |  |  |  | 40.9 | no death | 107 | 121 | 128
7 | Cc1cc(C)nc(NCCCC(NC(=O)OCc2ccccc2)C(=O)CC(Cc2ccc(O)cc2)C(=O)O)n1 (centres unmarked) [Example 4 (b), 5-benzyloxycarbonylamino-8-[(4,6-dimethylpyrimidin-2-yl)amino]-2-(4'-hydroxyphenylmethyl)-4-oxo-octanoic acid] |  |  |  | 655 | no death | 110 | 123 | 145
